Assay results taken from US20230049917A1, “Pharmaceutical Composition of CASR Modulators and Methods and Uses Thereof” (Lupin Limited, priority 2019, published 2023).

How the values were obtained:
iPTH = test: Phase 2 PK-PD Study: iPTH suppression in CKD patients with SHPT; format: in vivo, human; settings: 25 mg once daily
Method: A randomized, double-blind, placebo-controlled phase 2 clinical study was conducted to assess the efficacy, pharmacokinetics (PK), pharmacodynamics (PD) and safety of 2-methyl-5-((2R,4S)-2-((((R)-1-(naphthalen-1-yl)ethyl)amino)methyl) chroman yl)benzoic acid, hydrochloride (Compound 3), as a monotherapy in patients with CKD with secondary hyperparathyroidism (SHPT). The patients enrolled in the study were either on dialysis or not on dialysis. Patients could continue taking doses (whether stable dosing or otherwise) of calcium supplements, phosphate binders, vitamin D, vitamin D analogues or a combination thereof for the treatment of SHPT in combination with Compound 3. Patients can take at least one calcium supplement, phosphate binder, vitamin D, vitamin D analogue or a combination thereof concurrently or concomitantly with Compound 3. Dosing for such calcium supplements, phosphate binders, vitamin D, vitamin D analogues or a combination thereof for the treatment of SHPT can be individualized based on patient's iPTH levels, and/or can correlate with doses presently used for the treatment of SHPT.
This was an open-label, non-randomized, single arm study enrolling 10 patients of which 6 patients were on dialysis and 4 were not on dialysis. All patients received 25 mg Compound 3, once daily for […], and thereafter underwent PK-PD assessments. All 6 patients (100%) on dialysis group completed the study while 2 patients out of 4 (50%) on not on dialysis group completed the study. One objective of this study were to determine PK parameters maximum concentration, time to maximum concentration, area under the curve (AUC) (AUC from time 0 up to the last quantifiable concentration; AUC from time 0 to infinity; AUC from time 0 to 24 hours), half-life, apparent clearance, and apparent volume of distribution from blood samples collected at scheduled time-points. Yet another objective of this study was to determine PD parameters mean absolute change and mean percentage change from baseline in corrected total serum calcium and phosphorus.
For efficacy assessments, the primary efficacy assessment included measurement of iPTH and the exploratory efficacy assessment included measurement of parathyroid gland size at scheduled time points. Blood samples for measurement of iPTH were collected during Day −30 to Day −1 (Screening Period); Day 1; Day 8+/−3 days; Day 15+/−3 days; Day 30+/−3 days; Day 60+/−3 days; and Day 90+/−3 days (EOT/Early Discontinuations). […] If the blood sample collected on Day 90 could not be analysed for any reason, the second blood sample had to be collected within 3 days of end of treatment (EOT). Chemiluminescence microparticles immunoassay (CMIA) (such as Abbott's ARCHITECT® Intact PTH assay) was used to quantify iPTH in serum and plasma. […]

[1] = Phase 2 Main Study: phosphate change from baseline; format: in vivo, human
Method: For PK-PD assessments, blood samples for PK assessments were collected at scheduled time points (Screening Period; Day 1 (Pre-dose and post-dose); Day 2; Day 8 EOT (Pre-dose and post-dose); Day 9; Day 10; and Day 15+/−3 days (Follow-up visit)) in the PK-PD study. The PD profiling was done in parallel to the PK profiling in the PK-PD study. Blood samples (approximately 1×4 mL) for PK assessments were collected by venipuncture or cannulation at the selected time points into tubes containing dipotassium ethylenediaminetetraacetic acid (K2EDTA) anti-coagulant. The collected blood sample were kept on ice until centrifugation and later centrifuged at 4 °C at 5000 rpm for 10 minutes and the separated plasma collected in 2 tubes/aliquots. The plasma samples were stored at −20 °C or lower at the clinical centre until they were shipped for analysis. Blood samples (approximately 1×8 mL) for PD assessments were collected in PK-PD study and Main Study at selected time points The Main Study's selected time points were Screening Period; Day 1; Day 8+/−3 days; Day 15+/−3 days; Day 30+/−3 days; Day 60+/−3 days; and Day 90+/−3 days (EOT/Early Discontinuations). Blood samples (approximately 1×5 mL) for exploratory PD assessments for PK-PD study and Main Study were collected at selected time points.
Change from baseline to all measured and relevant time points was calculated. The baseline value for this study was the higher of the 2 values obtained during screening period for serum iPTH concentration, corrected total serum calcium and phosphorous. The baseline value for all other parameters was the last valid and planned visit value prior to first dose of IP in the study. For continuous data, summary statistics included the number, arithmetic mean, standard deviation (SD), median, minimum and maximum. For categorical data, frequency and percentage were presented.

[2] = target: human Ether-a-go-go-related gene (hERG) (Homo sapiens, UniProt Q12809); test: hERG liability
Sequence of human Ether-a-go-go-related gene (hERG) (Q12809 whole entry): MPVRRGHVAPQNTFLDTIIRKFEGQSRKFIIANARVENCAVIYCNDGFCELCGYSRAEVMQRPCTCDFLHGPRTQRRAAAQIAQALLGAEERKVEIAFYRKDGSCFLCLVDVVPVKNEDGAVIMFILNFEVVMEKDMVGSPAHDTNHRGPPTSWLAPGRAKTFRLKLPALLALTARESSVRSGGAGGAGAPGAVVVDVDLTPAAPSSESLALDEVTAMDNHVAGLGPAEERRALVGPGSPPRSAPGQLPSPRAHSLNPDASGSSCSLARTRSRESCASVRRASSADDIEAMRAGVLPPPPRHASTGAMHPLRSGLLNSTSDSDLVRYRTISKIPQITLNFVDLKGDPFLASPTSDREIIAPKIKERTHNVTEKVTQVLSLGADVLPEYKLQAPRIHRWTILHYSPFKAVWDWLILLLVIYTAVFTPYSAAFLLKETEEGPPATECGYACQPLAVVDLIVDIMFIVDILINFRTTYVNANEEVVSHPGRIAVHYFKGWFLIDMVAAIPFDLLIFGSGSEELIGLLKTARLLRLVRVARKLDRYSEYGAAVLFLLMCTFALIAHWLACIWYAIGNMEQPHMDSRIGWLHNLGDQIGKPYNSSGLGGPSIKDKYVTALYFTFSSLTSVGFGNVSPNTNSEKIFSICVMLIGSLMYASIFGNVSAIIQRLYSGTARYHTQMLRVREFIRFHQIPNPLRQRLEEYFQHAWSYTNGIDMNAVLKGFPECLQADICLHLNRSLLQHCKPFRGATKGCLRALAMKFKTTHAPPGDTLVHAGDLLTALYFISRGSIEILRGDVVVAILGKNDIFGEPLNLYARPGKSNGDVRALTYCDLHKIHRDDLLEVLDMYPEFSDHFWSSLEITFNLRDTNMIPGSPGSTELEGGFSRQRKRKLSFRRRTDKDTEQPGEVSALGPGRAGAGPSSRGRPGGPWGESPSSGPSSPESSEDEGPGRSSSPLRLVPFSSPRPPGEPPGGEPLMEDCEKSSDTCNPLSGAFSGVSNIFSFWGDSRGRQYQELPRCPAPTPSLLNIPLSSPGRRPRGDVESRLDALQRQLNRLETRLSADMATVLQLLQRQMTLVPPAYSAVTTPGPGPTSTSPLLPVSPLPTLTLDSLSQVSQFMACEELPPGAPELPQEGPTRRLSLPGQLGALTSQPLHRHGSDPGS

Cc1ccc([C@@H]2C[C@H](CN[C@H](C)c3cccc4ccccc34)Oc3ccccc32)cc1C(=O)O.Cl [Compound 3, 2-methyl-5-((2R,4S)-2-((((R)-1-(naphthalen-1-yl)ethyl)amino)methyl)chroman-4-yl)benzoic acid hydrochloride]
peak effect on iPTH suppression from baseline (iPTH; Day 1, within 4 hours of dosing, patients on dialysis and not on dialysis): > 80.0%
time of peak effect on iPTH suppression after dosing (iPTH; Day 1 and Day 8): ≤ 4 h
peak effect on iPTH suppression from baseline (iPTH; Day 8, within 4 hours of dosing, patients not on dialysis): > 85.0%
peak effect on iPTH suppression from baseline (iPTH; Day 8, within 4 hours of dosing, patients on dialysis): > 70.0%
phosphorous levels due to administration over a period of 90 days ([1]; CKD patients not on dialysis): no increase
phosphorous levels due to administration over a period of 90 days ([1]; CKD patients on dialysis): no increase
difference in mean percentage change in phosphate from baseline at the end of 90 days versus Placebo ([1]; patients not on dialysis, 10 mg and 5 mg arms): not significant
difference in mean percentage change in phosphate from baseline at the end of 90 days versus Placebo ([1]; patients on dialysis, 10 mg, 20 mg and 25 mg arms): not significant
hERG liabilities [2]: devoid
